Measurements published in publication PMC10878397, “Development of Potent Dual BET/HDAC Inhibitors via Pharmacophore Merging and Structure-Guided Optimization” (ACS Chemical Biology, 2024).
Read-outs that look alike come from different tables or passages of the source.

Key:
BRD4 bromodomains = BRD4 bromodomains (Homo sapiens, UniProt O60885); assay: NanoBRET target engagement assay, both bromodomains; type: cell-based
Method: The assay was performed as described previously.[17],[59] In brief, BRD4 bromodomains and full-length HDACs were obtained as plasmids cloned in-frame with a terminal NanoLuc fusion (Promega). Plasmids were transfected into HEK293T cells using FuGENE HD (Promega, E2312), and proteins were allowed to express for 20 h. Serially diluted inhibitor and the corresponding NanoBRET Tracer (Promega) at a concentration determined previously as the tracer KD, app were pipetted into white 384-well plates (Greiner #781207) for BRD assays or white 96-well plates (Corning #3600) for HDAC using an Echo acoustic dispenser (Labcyte). The corresponding protein-transfected cells were added and reseeded at a density of 2 × 10^5 cells/mL after trypsinization and resuspended in Opti-MEM without phenol red (Life Technologies). The system was allowed to equilibrate for 2 h at 37 °C/5% CO2 prior to BRET measurements. To measure BRET, NanoBRET NanoGlo substrate + Extracellular NanoLuc Inhibitor (Promega, N2540) was added as per the manufacturer’s protocol, and filtered luminescence was measured on a PHERAstar plate reader (BMG Labtech) equipped with a luminescence filter pair (450 nm BP filter (donor) and 610 nm LP filter (acceptor)). For lysed-mode NanoBRET experiments, digitonin (Promega, #G9441) was added as per the manufacturer’s instructions to a final concentration of […].

BAZ2B = target: T1, BAZ2B (Homo sapiens, UniProt Q9UIF8); assay: DSF bromodomain selectivity panel; type: binding; conditions: 10 μM compound
T1 construct: purchased in-house (SGC Frankfurt recombinant bromodomain DSF panel)
T1 sequence (Q9UIF8 whole entry): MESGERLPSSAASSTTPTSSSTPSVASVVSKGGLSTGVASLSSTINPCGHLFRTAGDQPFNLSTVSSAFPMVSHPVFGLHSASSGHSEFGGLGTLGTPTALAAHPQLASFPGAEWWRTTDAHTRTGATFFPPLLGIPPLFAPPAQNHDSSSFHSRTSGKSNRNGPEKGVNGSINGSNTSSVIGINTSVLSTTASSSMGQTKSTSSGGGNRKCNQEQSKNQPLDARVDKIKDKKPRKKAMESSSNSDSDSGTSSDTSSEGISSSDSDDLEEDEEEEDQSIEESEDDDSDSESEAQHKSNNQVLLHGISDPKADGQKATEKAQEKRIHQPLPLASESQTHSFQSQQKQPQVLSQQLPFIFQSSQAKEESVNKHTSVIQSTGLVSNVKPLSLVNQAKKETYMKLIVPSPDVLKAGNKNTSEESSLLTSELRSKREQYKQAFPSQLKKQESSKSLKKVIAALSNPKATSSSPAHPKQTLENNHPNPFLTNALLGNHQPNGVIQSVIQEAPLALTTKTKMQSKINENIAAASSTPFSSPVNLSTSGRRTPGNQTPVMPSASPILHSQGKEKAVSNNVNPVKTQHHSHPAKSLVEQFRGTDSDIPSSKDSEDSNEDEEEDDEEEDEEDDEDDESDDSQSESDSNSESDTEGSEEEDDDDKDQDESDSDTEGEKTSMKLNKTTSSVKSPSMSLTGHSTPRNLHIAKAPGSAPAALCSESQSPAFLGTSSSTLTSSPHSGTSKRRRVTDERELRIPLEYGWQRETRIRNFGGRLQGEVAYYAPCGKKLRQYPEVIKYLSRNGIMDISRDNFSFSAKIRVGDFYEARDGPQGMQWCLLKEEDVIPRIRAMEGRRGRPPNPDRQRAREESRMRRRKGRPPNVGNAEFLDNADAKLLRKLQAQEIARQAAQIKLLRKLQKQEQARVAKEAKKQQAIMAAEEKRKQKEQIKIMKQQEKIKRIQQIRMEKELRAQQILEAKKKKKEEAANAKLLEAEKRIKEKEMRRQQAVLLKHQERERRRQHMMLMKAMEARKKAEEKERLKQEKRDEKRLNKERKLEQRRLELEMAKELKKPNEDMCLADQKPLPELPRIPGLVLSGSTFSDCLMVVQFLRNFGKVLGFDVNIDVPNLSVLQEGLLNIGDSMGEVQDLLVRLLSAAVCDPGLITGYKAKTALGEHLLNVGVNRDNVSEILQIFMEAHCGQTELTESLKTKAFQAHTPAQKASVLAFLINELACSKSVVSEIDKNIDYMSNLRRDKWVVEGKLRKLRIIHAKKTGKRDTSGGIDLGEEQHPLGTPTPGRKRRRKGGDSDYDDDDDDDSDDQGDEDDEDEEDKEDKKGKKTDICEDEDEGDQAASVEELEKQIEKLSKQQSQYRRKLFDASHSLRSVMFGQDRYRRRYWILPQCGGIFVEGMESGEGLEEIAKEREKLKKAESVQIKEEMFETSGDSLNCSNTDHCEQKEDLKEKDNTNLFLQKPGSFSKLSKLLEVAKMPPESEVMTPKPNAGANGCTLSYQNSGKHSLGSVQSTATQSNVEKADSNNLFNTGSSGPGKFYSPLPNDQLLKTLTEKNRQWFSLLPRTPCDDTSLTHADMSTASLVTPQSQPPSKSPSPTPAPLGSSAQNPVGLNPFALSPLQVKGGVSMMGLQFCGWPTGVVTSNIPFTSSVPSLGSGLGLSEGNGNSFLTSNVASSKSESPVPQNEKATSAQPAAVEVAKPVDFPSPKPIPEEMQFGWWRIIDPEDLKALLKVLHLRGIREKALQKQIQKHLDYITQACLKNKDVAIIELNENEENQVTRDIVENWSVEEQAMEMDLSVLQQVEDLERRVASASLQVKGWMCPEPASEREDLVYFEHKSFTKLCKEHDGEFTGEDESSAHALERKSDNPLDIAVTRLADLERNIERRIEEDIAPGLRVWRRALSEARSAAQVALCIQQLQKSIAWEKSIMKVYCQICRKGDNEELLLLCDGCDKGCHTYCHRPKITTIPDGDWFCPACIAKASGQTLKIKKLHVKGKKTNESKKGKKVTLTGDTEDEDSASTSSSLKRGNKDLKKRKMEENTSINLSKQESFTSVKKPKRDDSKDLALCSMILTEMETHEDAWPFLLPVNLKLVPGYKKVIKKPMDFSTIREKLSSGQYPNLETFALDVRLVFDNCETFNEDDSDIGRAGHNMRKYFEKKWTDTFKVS
Method: (§1) The effects of inhibitor binding on the apparent melting temperature of recombinant bromodomains were determined by DSF in a 96-well plate (Starlab) at a protein concentration of 2 μM with 10 μΜ compound in buffer containing 25 mM HEPES, pH 7.5, 150 mM NaCl, and 0.5 mM TCEP. […] Protein unfolding profiles were recorded using an MX3005P real-time qPCR instrument (Agilent; excitation/emission filters = 492/610 nm) while increasing the temperature from 25 to 95 °C at a heating rate of 3 °C/min. Tm values were calculated after fitting the fluorescence curves to the Boltzmann equation. Differences in melting temperature upon compound binding are given as ΔTm = Tm (protein with inhibitor) – Tm (protein with DMSO control). Measurements were performed in triplicates.

BRD2 (2) = target: T2, BRD2 (2) (Homo sapiens, UniProt P25440); assay: DSF bromodomain selectivity panel; type: binding; conditions: 10 μM compound
T2 construct: BRD2 (2); purchased in-house (SGC Frankfurt recombinant bromodomain DSF panel)
T2 sequence (P25440 344-455 limits assumed): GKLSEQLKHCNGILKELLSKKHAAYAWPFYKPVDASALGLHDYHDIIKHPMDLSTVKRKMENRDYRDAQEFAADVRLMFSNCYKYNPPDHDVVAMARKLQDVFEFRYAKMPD
Method: as §1

BRDT(1) = target: T3, BRDT(1) (Homo sapiens, UniProt Q58F21); assay: DSF bromodomain selectivity panel; type: binding; conditions: 10 μM compound
T3 construct: BRDT(1); purchased in-house (SGC Frankfurt recombinant bromodomain DSF panel)
Method: as §1

BRPF3 = target: T4, BRPF3 (Homo sapiens, UniProt Q9ULD4); assay: DSF bromodomain selectivity panel; type: binding; conditions: 10 μM compound
T4 construct: purchased in-house (SGC Frankfurt recombinant bromodomain DSF panel)
T4 sequence (Q9ULD4 whole entry): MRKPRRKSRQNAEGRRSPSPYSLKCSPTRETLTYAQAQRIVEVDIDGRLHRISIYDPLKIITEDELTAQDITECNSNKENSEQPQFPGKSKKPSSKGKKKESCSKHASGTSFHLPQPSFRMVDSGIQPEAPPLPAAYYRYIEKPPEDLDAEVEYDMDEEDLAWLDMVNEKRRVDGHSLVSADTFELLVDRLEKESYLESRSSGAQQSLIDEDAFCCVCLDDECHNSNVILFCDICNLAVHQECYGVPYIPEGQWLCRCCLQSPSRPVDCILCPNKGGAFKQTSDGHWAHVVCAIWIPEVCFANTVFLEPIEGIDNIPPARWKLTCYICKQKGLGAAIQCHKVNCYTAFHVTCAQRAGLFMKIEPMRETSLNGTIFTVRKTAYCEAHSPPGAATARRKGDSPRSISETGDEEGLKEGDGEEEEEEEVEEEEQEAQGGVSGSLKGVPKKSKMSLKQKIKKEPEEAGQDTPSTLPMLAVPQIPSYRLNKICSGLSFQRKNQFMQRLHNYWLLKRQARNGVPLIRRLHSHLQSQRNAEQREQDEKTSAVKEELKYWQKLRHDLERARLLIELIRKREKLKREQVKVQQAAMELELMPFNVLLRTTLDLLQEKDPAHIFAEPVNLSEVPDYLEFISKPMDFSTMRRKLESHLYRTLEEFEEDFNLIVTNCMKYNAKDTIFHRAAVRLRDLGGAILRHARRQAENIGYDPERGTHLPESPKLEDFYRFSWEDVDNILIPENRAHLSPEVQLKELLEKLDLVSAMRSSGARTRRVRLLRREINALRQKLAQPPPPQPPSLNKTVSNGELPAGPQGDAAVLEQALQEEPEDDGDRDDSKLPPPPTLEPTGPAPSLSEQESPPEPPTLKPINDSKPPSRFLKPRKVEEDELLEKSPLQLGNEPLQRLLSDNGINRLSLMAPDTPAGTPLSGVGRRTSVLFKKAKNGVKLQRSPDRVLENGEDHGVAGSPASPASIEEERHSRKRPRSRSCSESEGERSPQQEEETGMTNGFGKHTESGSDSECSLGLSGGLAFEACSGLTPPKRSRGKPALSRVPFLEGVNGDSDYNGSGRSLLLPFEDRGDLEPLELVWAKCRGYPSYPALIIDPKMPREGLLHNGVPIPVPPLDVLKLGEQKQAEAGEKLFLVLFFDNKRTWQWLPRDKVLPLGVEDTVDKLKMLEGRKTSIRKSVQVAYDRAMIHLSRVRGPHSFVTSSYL
Method: as §1

PB1A(6) = target: T5, PB1A(6) (Homo sapiens, UniProt Q86U86); assay: DSF bromodomain selectivity panel; type: binding; conditions: 10 μM compound
T5 construct: PB1A(6); purchased in-house (SGC Frankfurt recombinant bromodomain DSF panel)
T5 sequence (Q86U86 773-914 limits assumed): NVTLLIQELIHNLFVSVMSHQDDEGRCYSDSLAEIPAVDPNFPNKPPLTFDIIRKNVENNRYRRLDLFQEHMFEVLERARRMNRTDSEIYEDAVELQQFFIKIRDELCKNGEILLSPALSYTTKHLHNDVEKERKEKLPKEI
Method: as §1

PCAFA = target: T6, PCAFA (Homo sapiens, UniProt Q92831); assay: DSF bromodomain selectivity panel; type: binding; conditions: 10 μM compound
T6 construct: purchased in-house (SGC Frankfurt recombinant bromodomain DSF panel)
T6 sequence (Q92831 whole entry): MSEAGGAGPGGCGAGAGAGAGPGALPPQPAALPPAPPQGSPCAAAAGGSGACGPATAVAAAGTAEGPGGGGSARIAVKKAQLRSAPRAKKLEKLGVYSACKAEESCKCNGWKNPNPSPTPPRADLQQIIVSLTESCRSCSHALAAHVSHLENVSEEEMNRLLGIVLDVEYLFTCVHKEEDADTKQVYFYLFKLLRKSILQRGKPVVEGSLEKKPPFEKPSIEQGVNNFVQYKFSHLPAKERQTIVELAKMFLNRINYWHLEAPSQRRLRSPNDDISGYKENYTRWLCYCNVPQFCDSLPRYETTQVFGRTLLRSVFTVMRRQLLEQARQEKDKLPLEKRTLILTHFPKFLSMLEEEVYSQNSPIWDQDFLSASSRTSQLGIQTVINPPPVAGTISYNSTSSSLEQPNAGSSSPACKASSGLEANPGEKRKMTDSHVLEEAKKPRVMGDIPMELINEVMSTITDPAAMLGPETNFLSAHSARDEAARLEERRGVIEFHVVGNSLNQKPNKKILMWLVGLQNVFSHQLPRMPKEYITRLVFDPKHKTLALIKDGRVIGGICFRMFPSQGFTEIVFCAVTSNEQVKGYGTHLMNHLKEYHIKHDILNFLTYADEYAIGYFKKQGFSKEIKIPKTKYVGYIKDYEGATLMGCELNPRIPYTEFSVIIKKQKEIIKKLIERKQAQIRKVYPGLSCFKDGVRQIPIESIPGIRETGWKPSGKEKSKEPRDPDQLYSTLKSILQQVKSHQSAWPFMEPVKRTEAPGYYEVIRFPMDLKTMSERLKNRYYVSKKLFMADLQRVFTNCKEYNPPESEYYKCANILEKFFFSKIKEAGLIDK
Method: as §1

TAF1LA (1) = target: T7, TAF1LA (1) (Homo sapiens, UniProt Q8IZX4); assay: DSF bromodomain selectivity panel; type: binding; conditions: 10 μM compound
T7 construct: TAF1LA (1); purchased in-house (SGC Frankfurt recombinant bromodomain DSF panel)
T7 sequence (Q8IZX4 1392-1522 limits assumed): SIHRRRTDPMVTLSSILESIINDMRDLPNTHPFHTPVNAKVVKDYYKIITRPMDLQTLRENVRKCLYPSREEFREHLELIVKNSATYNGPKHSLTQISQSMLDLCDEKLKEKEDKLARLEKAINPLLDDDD
Method: as §1

WDR9A(1) = target: T8, WDR9A(1) (Homo sapiens, UniProt Q9NSI6); assay: DSF bromodomain selectivity panel; type: binding; conditions: 10 μM compound
T8 construct: WDR9A(1); purchased in-house (SGC Frankfurt recombinant bromodomain DSF panel)
T8 sequence (Q9NSI6 1150-1280 limits assumed): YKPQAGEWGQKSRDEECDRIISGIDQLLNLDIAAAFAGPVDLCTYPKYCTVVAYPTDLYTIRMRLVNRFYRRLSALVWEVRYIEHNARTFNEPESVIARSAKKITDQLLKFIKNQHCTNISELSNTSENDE
Method: as §1

panel of 32 bromodomains = assay: DSF selectivity screen, whole panel; type: binding; conditions: 10 μM compound
Method: as §1

BRD4 BD1 = BRD4 BD1 (Homo sapiens, UniProt O60885); assay: Isothermal titration calorimetry; type: binding; design: BRD4 BD1 (residues N44-E168) for structural studies was subcloned in the pNIC28-Bsa4 vector; His6 (followed by a TEV site) (N, cleaved yes); made in house; host or cells: Escherichia coli BL21(D3)-R3-pRARE2 Rosetta; conditions: for ITC -TΔS / ITC Ka / ITC n (stoichiometry) / ITC ΔG / ITC ΔH / ITC ΔS / Kd: 15 °C
Method: ITC measurements were performed using a Nano ITC microcalorimeter (TA Instruments, New Castle, Pennsylvania). For all experiments, reverse titration was performed (syringe containing the protein solution; cell containing the ligand) in ITC buffer containing 25 mM HEPES, pH 7.5, 150 mM NaCl, 0.5 mM TCEP, and 5% glycerol. All compounds were diluted from 50 mM DMSO stocks to 20 μΜ in ITC buffer, and BRD4-BD1 was diluted to 120 μΜ in a DMSO-adjusted ITC buffer. BRD4-BD1 (120 μΜ) was titrated into the compound solution (20 μΜ) with an initial injection (4 μL) followed by 29 identical injections (8 μL), at a rate of 0.5 μL/s and with 150 or 200 s intervals. All experiments were performed at 15 °C while stirring at 350 rpm. The heat of dilution was determined by independent titrations (protein into buffer) and subtracted from the experimental raw data. Data were processed using NanoAnalyze software (version 3.10.0) provided by the instrument manufacturer. The first injection was excluded from the analysis, and fitted curves were generated by applying the independent model (single binding site) to the raw data. Complete thermodynamic data analysis can be found in Table S2.

[1] = system: MYC mRNA in NMC HCC2429 cells; assay: Quantitative RT-PCR of oncogenic drivers; type: cell-based; conditions: HCC2429, 6 h, 1 μΜ compound
Method: (§2) Total RNA was extracted from cell culture using the Maxwell RSC simply RNA Cells Kit (Promega) according to the manufacturer’s protocol. cDNA was synthesized using PrimeScript Reverse Transcriptase (TakaRa) and amplified using homemade PCR master mix. The amplicon was detected by EvaGreen Dye using a LightCycler 480 instrument (Roche). PCR conditions were 5 min at 95 °C, followed by 45 cycles of 95 °C for 10 s, 59 °C for 10 s, and 72 °C for 20 s. The relative gene expression levels were normalized to GUSB and calculated using the 2^–ΔΔC^t method.

[2] = system: TP63 mRNA in NMC HCC2429 cells; assay: Quantitative RT-PCR of oncogenic drivers; type: cell-based; conditions: HCC2429, 6 h, 1 μΜ compound
Method: as §2

[3] = 95% confidence level, read-out: ITC Kd

Structure (SMILES)	Mean Tm BAZ2B (BAZ2B) [K]	Mean Tm BRD2 (2) (BRD2 (2)) [K]	Mean Tm BRDT(1) (BRDT(1)) [K]	Mean Tm BRPF3 (BRPF3) [K]	Mean Tm PB1A(6) (PB1A(6)) [K]	Mean Tm PCAFA (PCAFA) [K]	Mean Tm TAF1LA (1) (TAF1LA (1)) [K]	Mean Tm WDR9A(1) (WDR9A(1)) [K]	bromodomain selectivity in DSF screen (panel of 32 bromodomains)	ITC -TΔS (BRD4 BD1) [kcal/mol]	ITC Ka (BRD4 BD1) [Mˉ¹]	ITC n (stoichiometry) (BRD4 BD1)	ITC ΔG (BRD4 BD1) [kcal/mol]	ITC ΔH (BRD4 BD1) [kcal/mol]	ITC ΔS (BRD4 BD1) [cal/mol·K]	Kd (BRD4 BD1; [3]) [nM]	MYC mRNA levels [1]	TP63 mRNA levels [2]	also measured
Cn1cc(-c2ccc(C(=O)Nc3ccccc3N)cc2)c2cc[nH]c2c1=O [NB462]	0.5 ± 0.0	5.3 ± 0.1	3.0 ± 0.2	-0.5 ± 0.1	0.3 ± 0.1	0.1 ± 0.4	0.3 ± 0.1	-0.3 ± 0.2	BRD7 and BRD9 as prominent off-targets	1.371	6.58E+06	0.996 ± 0.029	-8.99	-10.36 ± 0.501	-4.759	152	–	–	EC50 (BRD4 bromodomains; BD1 and BD2, intact cells, read-out: NanoBRET EC50 BRD4 bromodomains): 100 to 400 nM
Cn1cc(-c2ccc(C(=O)Nc3ccccc3N)nc2)c2cc[nH]c2c1=O [NB500]	–	–	–	–	–	–	–	–	–	-1.832	2.18E+07	1.003 ± 0.022	-9.676	-7.844 ± 0.360	6.358	45.8	strongest effect	strongest effect	fold increased binding affinity to BRD4 BD1 in ITC vs NB462 (BRD4 BD1): 3 fold; Kd (BRD4 BD1; read-out: ITC Kd BRD4 BD1): 46 nM
Cn1cc(-c2ccc(C(=O)Nc3cc(-c4ccccc4)ccc3N)cc2)c2cc[nH]c2c1=O [NB503]	1.4 ± 0.1	3.6 ± 0.4	3.3 ± 0.1	1.2 ± 0.1	1.3 ± 0.1	1.9 ± 0.2	0.6 ± 0.3	0.0 ± 0.0	high selectivity for BET bromodomains	–	–	–	–	–	–	–	strongest effect	strongest effect	–
Cn1cc(-c2ccc(C(=O)Nc3cc(-c4ccccc4)ccc3N)nc2)c2cc[nH]c2c1=O [NB512]	–	–	–	–	–	–	–	–	–	–	–	–	–	–	–	–	–	–	EC50 (BRD4 bromodomains; intact and permeabilized cells, read-out: NanoBRET EC50 both BRD4 bromodomains): 100 to 400 nM
